In US20110092544A1, “FUNGICIDAL PYRIDINES” (E.I. DU PONT DE nemours and company, priority 2008, published 2011) one finds pest or weed control and melting point data, which are given here for one compound.

The test system of one data set is Rhizoctonia oryzae. The data set can be described thus: Test G: turf brown patch, preventive spray on creeping bent grass seedlings, visual disease rating. Particulars: Waitea circinata, in Agrostis stolonifera, 120 h, 200 ppm, 100 = 100% disease control, 0 = no control. It is filed as in vivo.
Data set [1] has as its system Puccinia recondite f. sp. tritici. Kind of data set: Test B: wheat leaf rust, preventive spray on wheat seedlings, visual disease rating. It is filed as in vivo. Conditions: 192 h, 200 ppm, 100 = 100% disease control, 0 = no control. Summed up: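 Wheat seedlings were sprayed to run-off with compound suspension, 200 ppm (≈500 g/ha) or 40 ppm where marked, containing surfactant in acetone/water. Inoculation with Puccinia recondita spores followed one day later, then 24 h in saturated humidity at 20° C and 7 days at 20° C. Disease control was rated visually, 0–100% versus controls.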

The next data set relates to Alternaria solani. The data set can be described thus: Test E: tomato early blight, preventive spray on tomato seedlings, visual disease rating. It is filed as in vivo. Conditions: Alternaria solani, 168 h, 200 ppm, 100 = 100% disease control, 0 = no control. Summed up:
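Seedlings sprayed to run-off with compound in acetone/water plus 250 ppm Trem 014 (200 ppm ≈ 500 g/ha), inoculated with spores next day. Held 48 h saturated at 27 °C, then 5 days at 20 °C; visual rating 0–100% disease control relative to controls.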

A further data set relates to Septoria tritici. The data set can be described thus: Test C: wheat leaf blotch, preventive spray on wheat seedlings, visual disease rating. It is filed as in vivo. Conditions: Zymoseptoria tritici, 504 h, 200 ppm, 100 = 100% disease control, 0 = no control. The essentials: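 Wheat seedlings sprayed to run-off with compound in acetone/water plus 250 ppm surfactant at 200 ppm (≈500 g/ha), or 40 ppm where marked; inoculated with Septoria tritici next day. Held saturated at 20 °C for 48 h, then 19 days at 20 °C; disease control rated visually 0–100 versus controls.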

The test system of data set [2] is Erysiphe graminis f. sp. tritici. The data set can be described thus: Test A: wheat powdery mildew, preventive spray on wheat seedlings, visual disease rating. Format: in vivo. Particulars: Blumeria graminis, 192 h, 200 ppm, 100 = 100% disease control, 0 = no control. Summed up:
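Acetone/water (50/50) suspension with 250 ppm surfactant sprayed to run-off on wheat seedlings (200 ppm ≈ 500 g/ha); inoculated next day with E. graminis spore dust. Incubated 8 days at 20° C, then visually rated 0–100% disease control versus untreated controls; tests at 200 ppm or 40 ppm.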

The test system of another data set is Septoria nodorum. The data set can be described thus: Test D: wheat glume blotch, preventive spray on wheat seedlings, visual disease rating. Format: in vivo. Particulars: Parastagonospora nodorum, 216 h, 200 ppm, 100 = 100% disease control, 0 = no control. Summed up: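 Compounds in 3% acetone, then 50/50 acetone–water with 250 ppm Trem 014, sprayed to run-off at 200 ppm (500 g/ha; some at 40 ppm) one day before spore inoculation. Held 48 h saturated at 20 °C, then 7 days at 20 °C; visual rating as % disease control vs untreated (0–100).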

A further data set relates to Botrytis cinerea. Kind of data set: Test F: tomato botrytis, preventive spray on tomato seedlings, visual disease rating. Conditions: Botrytis cinerea, 120 h, 200 ppm, 100 = 100% disease control, 0 = no control. Format: in vivo. Summed up:
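Tomato seedlings sprayed to run-off with compound suspended in acetone/water (50/50) plus 250 ppm Trem 014, at 200 ppm (≈500 g/ha) or 40 ppm where marked. Inoculated next day with B. cinerea spores, 48 h saturated atmosphere at 20 °C, then 3 days at 24 °C. Visual rating, 0–100% disease control relative to controls.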

A word on the pest or weed control: it is how far the test organism was held down. The low end stands for a weak effect, the high end for a strong effect. A word on the melting point: it is the temperature of the solid-liquid transition.

Compound `COc1cc(OC)cc(-c2c(C(C)(C)O)cnc(C)c2-c2c(F)cc(F)cc2F)c1` [Compound 44, 4-(3,5-dimethoxyphenyl)-α,α,6-trimethyl-5-(2,4,6-trifluorophenyl)-3-pyridinemethanol] registered a melting point of 166 to 167 °C. For the same compound, the pest or weed control at 200 ppm in the data set on Rhizoctonia oryzae was found to be 86%. Besides, the pest or weed control at 200 ppm in data set [1] is 100%. This compound yielded a pest or weed control at 200 ppm in the data set on Alternaria solani of 100%. The pest or weed control at 200 ppm in the data set on Septoria tritici is 100%. This compound registered a pest or weed control at 200 ppm in data set [2] of 99%. The pest or weed control at 200 ppm in the data set on Septoria nodorum turned out to be 99%. In the data set on Botrytis cinerea, the pest or weed control at 200 ppm turned out to be 99%.
